Measured values: patent US20260234124A1, “Substituted Pyrazolyl-Pyridinyl Compounds as Ligand Directed Degraders of IRAK3” (Celgene Corporation, priority 2022, published 2026)

Target: T1, IRAK3-ePL (Homo sapiens, UniProt Q9Y616)
T1 construct: expressed in transfected cells; host or cells: 293T CRBN OE/GSPT1 G575N KI cells, lentiviral transduction, puromycin selection
Assay: IRAK3-ePL overexpressing degradation assay
Type: cell-based
Conditions: IRAK3-ePL Lenti-X 293T CRBN/GSPT1 G575N cells, overnight incubation, top dose 10 μM; for Dmax: HEK-293T, maximum percentage loss of target protein; for DC50: read-out: IRAK3 ePL degradation EC50
Protocol: Example B1. IRAK3-ePL Overexpressing Degradation Assay
Stable cell lines were generated by the following protocol. 3×10^5 Lenti-X 293T cells (Clonetech) were plated in 0.8 mL of media in a 12-well plate and incubated overnight at 37° C./5% CO2. Packaging plasmid (0.4 μg, pMD), envelope plasmid (0.4 μg, pSP), and lentiviral transfer IRAK3-ePL plasmid (0.8 μg, IRAK3 sequence NM_007199.3) were mixed in 0.1 mL of Opti-MEM and incubated for 5 min. Simultaneously, 2.4 μL of Lipofectamine 2000 (Invitrogen) was added to 0.1 mL of Opti-MEM (Gibco) and incubated for 5 min. The plasmid DNA and lipofectamine were combined and the mixture was allowed to incubate for 20 min. DNA:Lipofectamine Opti-MEM mixtures were then added to previously plated cells dropwise and the cells were incubated for ~16 h at 37° C./5% CO2. Following incubation, the media was removed and 1.2 mL of fresh media was added per well. Lenti-X 293T cells were incubated for ~30 h at 37° C./5% CO2. […] Following incubation, media was removed from the Lenti-X 293T wells and passed through a […]. Part of the viral supernatant was used to transduce cells and the rest was stored at −80° C. Viruses were then added individually (0.5 mL virus) to each well of the 293T^CRBN OE/GSPT1 G575N KI cells, followed by addition of polybrene (10 mg/mL Millipore) to each well at a final concentration of 5.0 μg/mL. Cells were incubated for ~24 h at 37° C./5% CO2. After aspirating media off plates, cells were washed with DPBS, trypsinized and plated in a 10 cm dish in 15 mL of media and 1 μg/mL puromycin. Following incubation of cells for ~72 h at 37° C./5% CO2, media was aspirated off plates, and cells were washed with DPBS and trypsinized. The cells were plated in a 15 cm dish in 40 mL of media with 1.0 μg/mL Puromycin (Gibco) and incubated for ~72 h at 37° C./5% CO2. Following incubation, media was removed and cells were washed with DPBS and trypsinized. The majority of cells were resuspended in Invitrogen freezing media and stored away (~6-8×10^6 cells/vial).
IRAK3-ePL cellular dose response curve degradation assays were performed by the following protocol. Compounds to be tested were dispensed into a white 384-well tissue-culture treated plate using an acoustic liquid handler. Dilutions were prepared based on a 25 μL assay volume in duplicate 10 point 3-fold serial dilutions starting with a 10 μM dose. Negative control wells were included, which only contain 0.2% DMSO to calculate 100% signal. Positive control wells containing 30 μM Ataluren (luciferase inhibitor) were included to calculate the background signal level. All wells were backfilled to a final DMSO concentration of 0.2% to ensure DMSO uniformity across wells. IRAK3-ePL expressing cells (IRAK3-ePL Lenti-X 293T^CRBN/GSPT1 G575N) were washed, trypsinized, counted, and resuspended in fresh DMEM (Gibco) to give a cell concentration of 200,000 cells/mL. 25 μL of cells (5,000 cells/well) were dispensed into the wells of the 384-well plate prespotted with compounds in the previous step and incubated overnight at 37° C./5% CO2. Following incubation, the 384-well plate was taken out of the incubator and left at room temperature for 30 min. InCELL hunter reagent was prepared according to manufacturer's instructions (EA reagent, lysis buffer, and substrate reagent in a 1:1:4 ratio, Cat #96-0002, DiscoverX), which was added to the 384-well plate 25 μL per well. Following the incubation of the plate for 1 h at room temperature, the luminescence signal was read using a ViewLux plate reader. Data was processed and analyzed in ActivityBase software. In short, the average luminescence values of the positive control wells were subtracted from the rest of the wells for background correction, and all luminescence values were normalized to the DMSO control wells. The average value of the DMSO control wells was set to equal 100% of the relative IRAK3-ePL protein levels. […]

Dmax	DC50	SMILES
22%	> 10 µM	C[C@@H](Oc1cc(-c2cnn(C3CCN(CCOCCOCCNC(=O)COc4cccc5c4C(=O)N(C4CCC(=O)NC4=O)C5=O)CC3)c2)cnc1N)c1c(Cl)ccc(F)c1Cl (stereo partly drawn) [Compound 10, N-(2-(2-(2-(4-(4-(6-amino-5-((R)-1-(2,6-dichloro-3-fluorophenyl)ethoxy)pyridin-3-yl)-1H-pyrazol-1-yl)piperidin-1-yl)ethoxy)ethoxy)ethyl)-2-((2-(2,6-dioxopiperidin-3-yl)-1,3-dioxoisoindolin-4-yl)oxy)acetamide]
12%	> 10 µM	C[C@@H](Oc1cc(-c2cnn(C3CCN(CCOCCNC(=O)COc4ccc5c(c4)C(=O)N(C4CCC(=O)NC4=O)C5=O)CC3)c2)cnc1N)c1c(Cl)ccc(F)c1Cl (stereo partly drawn) [Compound 14, N-(2-(2-(4-(4-(6-amino-5-((R)-1-(2,6-dichloro-3-fluorophenyl)ethoxy)pyridin-3-yl)-1H-pyrazol-1-yl)piperidin-1-yl)ethoxy)ethyl)-2-((2-(2,6-dioxopiperidin-3-yl)-1,3-dioxoisoindolin-5-yl)oxy)acetamide]
80%	0.066 µM	C[C@@H](Oc1cc(-c2cnn(C3CCN(C4CCC5(CC4)CCN(C(=O)c4ccc6c(c4)C(=O)N(C4CCC(=O)NC4=O)C6=O)CC5)CC3)c2)cnc1N)c1c(Cl)ccc(F)c1Cl (stereo partly drawn) [Compound 18, 5-(9-(4-(4-(6-amino-5-((R)-1-(2,6-dichloro-3-fluorophenyl)ethoxy)pyridin-3-yl)-1H-pyrazol-1-yl)piperidin-1-yl)-3-azaspiro[5.5]undecane-3-carbonyl)-2-(2,6-dioxopiperidin-3-yl)isoindoline-1,3-dione]
36%	> 10 µM	C[C@@H](Oc1cc(-c2cnn(C3CCN(C4CCC5(CC4)CCN(C(=O)c4ccc6c(c4)C(=O)N(C4CCC(=O)NC4=O)C6)CC5)CC3)c2)cnc1N)c1c(Cl)ccc(F)c1Cl (stereo partly drawn) [Compound 19, 3-(6-(9-(4-(4-(6-amino-5-((R)-1-(2,6-dichloro-3-fluorophenyl)ethoxy)pyridin-3-yl)-1H-pyrazol-1-yl)piperidin-1-yl)-3-azaspiro[5.5]undecane-3-carbonyl)-1-oxoisoindolin-2-yl)piperidine-2,6-dione]
12%	> 10 µM	C[C@@H](Oc1cc(-c2cnn(C3CCN(CCNC(=O)COc4cccc5c4C(=O)N(C4CCC(=O)NC4=O)C5=O)CC3)c2)cnc1N)c1c(Cl)ccc(F)c1Cl (stereo partly drawn) [Compound 8, N-(2-(4-(4-(6-amino-5-((R)-1-(2,6-dichloro-3-fluorophenyl)ethoxy)pyridin-3-yl)-1H-pyrazol-1-yl)piperidin-1-yl)ethyl)-2-((2-(2,6-dioxopiperidin-3-yl)-1,3-dioxoisoindolin-4-yl)oxy)acetamide]
30%	> 10 µM	C[C@@H](Oc1cc(-c2cnn(C3CCN(CCOCCOCCOCCOCCNC(=O)COc4cccc5c4C(=O)N(C4CCC(=O)NC4=O)C5=O)CC3)c2)cnc1N)c1c(Cl)ccc(F)c1Cl (stereo partly drawn) [Compound 12, N-(14-(4-(4-(6-amino-5-((R)-1-(2,6-dichloro-3-fluorophenyl)ethoxy)pyridin-3-yl)-1H-pyrazol-1-yl)piperidin-1-yl)-3,6,9,12-tetraoxatetradecyl)-2-((2-(2,6-dioxopiperidin-3-yl)-1,3-dioxoisoindolin-4-yl)oxy)acetamide]
38%	> 10 µM	Cc1ncsc1-c1ccc(CNC(=O)[C@@H]2C[C@@H](O)CN2C(=O)[C@@H](NC(=O)COCCOCCOCCOCCOCCOCCOCCN2CCC(n3cc(-c4cnc(N)c(O[C@H](C)c5c(Cl)ccc(F)c5Cl)c4)cn3)CC2)C(C)(C)C)cc1 [Compound 7, (2S,4R)-1-((S)-26-(4-(4-(6-amino-5-((R)-1-(2,6-dichloro-3-fluorophenyl)ethoxy)pyridin-3-yl)-1H-pyrazol-1-yl)piperidin-1-yl)-2-(tert-butyl)-4-oxo-6,9,12,15,18,21,24-heptaoxa-3-azahexacosanoyl)-4-hydroxy-N-(4-(4-methylthiazol-5-yl)benzyl)pyrrolidine-2-carboxamide]
18%	> 10 µM	C[C@@H](Oc1cc(-c2cnn(C3CCN(CCOCCOCCOCCOCCNC(=O)COc4ccc5c(c4)C(=O)N(C4CCC(=O)NC4=O)C5=O)CC3)c2)cnc1N)c1c(Cl)ccc(F)c1Cl (stereo partly drawn) [Compound 17, N-(14-(4-(4-(6-amino-5-((R)-1-(2,6-dichloro-3-fluorophenyl)ethoxy)pyridin-3-yl)-1H-pyrazol-1-yl)piperidin-1-yl)-3,6,9,12-tetraoxatetradecyl)-2-((2-(2,6-dioxopiperidin-3-yl)-1,3-dioxoisoindolin-5-yl)oxy)acetamide]
25%	> 10 µM	Cc1ncsc1-c1ccc(CNC(=O)[C@@H]2C[C@@H](O)CN2C(=O)[C@@H](NC(=O)COCCOCCOCCOCCOCCOCCN2CCC(n3cc(-c4cnc(N)c(O[C@H](C)c5c(Cl)ccc(F)c5Cl)c4)cn3)CC2)C(C)(C)C)cc1 [Compound 6, (2S,4R)-1-((S)-23-(4-(4-(6-amino-5-((R)-1-(2,6-dichloro-3-fluorophenyl)ethoxy)pyridin-3-yl)-1H-pyrazol-1-yl)piperidin-1-yl)-2-(tert-butyl)-4-oxo-6,9,12,15,18,21-hexaoxa-3-azatricosanoyl)-4-hydroxy-N-(4-(4-methylthiazol-5-yl)benzyl)pyrrolidine-2-carboxamide]
27%	> 10 µM	C[C@@H](Oc1cc(-c2cnn(C3CCN(CCOCCOCCNC(=O)COc4ccc5c(c4)C(=O)N(C4CCC(=O)NC4=O)C5=O)CC3)c2)cnc1N)c1c(Cl)ccc(F)c1Cl (stereo partly drawn) [Compound 15, N-(2-(2-(2-(4-(4-(6-amino-5-((R)-1-(2,6-dichloro-3-fluorophenyl)ethoxy)pyridin-3-yl)-1H-pyrazol-1-yl)piperidin-1-yl)ethoxy)ethoxy)ethyl)-2-((2-(2,6-dioxopiperidin-3-yl)-1,3-dioxoisoindolin-5-yl)oxy)acetamide]
78%	0.066 µM	C[C@@H](Oc1cc(-c2cnn(C3CCN(C4CCC5(CC4)CCN(C(=O)c4cccc(NC6CCC(=O)NC6=O)c4)CC5)CC3)c2)cnc1N)c1c(Cl)ccc(F)c1Cl (stereo partly drawn) [Compound 22, 3-((3-(9-(4-(4-(6-Amino-5-((R)-1-(2,6-dichloro-3-fluorophenyl)ethoxy)pyridin-3-yl)-1H-pyrazol-1-yl)piperidin-1-yl)-3-azaspiro[5.5]undecane-3-carbonyl)phenyl)amino)piperidine-2,6-dione]
19%	> 10 µM	C[C@@H](Oc1cc(-c2cnn(C3CCN(CCOCCOCCOCCNC(=O)COc4ccc5c(c4)C(=O)N(C4CCC(=O)NC4=O)C5=O)CC3)c2)cnc1N)c1c(Cl)ccc(F)c1Cl (stereo partly drawn) [Compound 16, N-(2-(2-(2-(2-(4-(4-(6-amino-5-((R)-1-(2,6-dichloro-3-fluorophenyl)ethoxy)pyridin-3-yl)-1H-pyrazol-1-yl)piperidin-1-yl)ethoxy)ethoxy)ethoxy)ethyl)-2-((2-(2,6-dioxopiperidin-3-yl)-1,3-dioxoisoindolin-5-yl)oxy)acetamide]
